Like-named read-outs stand apart in the source and are kept apart here. Values belong to the compound of their own block, whether it stands above or below them.
Columns and labels:
CDK2/cyclinA (h) = biological target: T1, CDK2/cyclinA (h) (Homo sapiens, UniProt P24941); experiment: Radiometric protein kinase assay (Eurofins); type: biochemical; details: ATP 45 μM
T1 construct: purchased Eurofins, Dundee, Scotland

[1] = tested on: MDM2 pre-mRNA splicing in Rh18 cells; experiment: RT-PCR confirmation of splicing changes, MDM2; type: cell-based; details: 4 h, SD6 10 μM, compound 1 10 μM, compound 2 5 μM, compound 3 10 μM
Experimental: RH-18 cells were cultured in RPMI 1640 medium containing 10% FCS. Cells are all maintained in humidified incubator with 5% CO2 at 37°C. Rh18 cells were exposed to 0.5% DMSO or SD6 10 μM, Cpd1 10 μM, Cpd2 5 μM or Cpd3 10 μM for 4 h. Total RNA was extracted and converted to cDNA. PCR was performed using NEB Q5 Master Mix and specific primers listed below (Table 2) according to the manufacturer’s instruction and standard PCR protocols: 50 ng cDNA and 30 μl of the final reaction volume was used. PCR products were subjected to 3% agarose gel electrophoresis.
AS patterns were identified with compound treatment for MDM2 and RBM39 transcripts. Ubiquitin (UBQ) transcripts were used as a control since these are not spliced. […] Rh18 cells were treated with either DMSO control or compounds for 4 h. Total RNA was extracted and converted to cDNA. PCR was performed using corresponding primers and PCR products were subjected to 3% agarose gel electrophoresis.

SF3B1 = biological target: T2, SF3B1 (Homo sapiens, UniProt O75533+Q7RTV0); experiment: Competitive antagonist assay (TESLR in the presence of SD6 or hit compound); type: cell-based; details: 6 μM compound for one hour, then serial dilutions of sudemycinol C for another 4 hours
T2 construct: endogenous in cells
Experimental: SK-MEL-2/Luc-MDM2 stable cells were plated at a density of 20,000 cells/well in 96-well plates and incubated overnight at 37°C in 5% CO2.[27, 28] The following day, cells were treated with 14 analogs using serial dilution for one hour. The list of compounds screened as potential TESLR antagonists are show in SI file. After one-hour pre-treatment, 4 μM of SD6 were added to the pre-treated cells for another 4 hours. Either 0.5% DMSO or serial dilutions of SD6 were used to treat cells for 4 hours as controls. At the end of incubation time, ONE-Glo™ EX reagents (Promega) were added to measure the luciferase activity. […]
Fig 6 Competitive antagonist assay. (Left Panel) The assay that identified two antagonists of SD6 activity in the TESLR screen, which are useful for the determination of SF3B1 binding. Relative luminescent units were plotted against corresponding drug concentrations and fitted with a standard four parameter sigmoidal curve with GraphPad Prism. (Right Panel) The structures of the antagonists and SD6. See SI for chemistry details.
. SK-MEL-2/Luc-MDM2 stable cells were plated at a density of 20000/well in 96-well plates and incubated overnight at 37°C in 5% CO2. […]. After one-hour pre-treatment, serial dilutions of the sudemycinol C were added to the pre-treated cells for another 4 hours. […]. At the end of incubation time, ONE-Glo™ EX reagents (Promega) were added to measure the luciferase activity. […]. DR: dose response.

[2] = tested on: triple-exon skipping of MDM2 pre-mRNA in SK-MEL-2/Luc-MDM2 cells; experiment: TESLR (Triple Exon Skipping Luciferase Reporter) dose response; details: for EC50: read-out: TESLR EC50; for TESLR Maximum fold change: 4 hours
DYRK2 (h) = biological target: T3, DYRK2 (h) (Homo sapiens, UniProt Q92630); experiment: Radiometric protein kinase assay (Eurofins); type: biochemical; details: ATP 15 μM
T3 construct: purchased Eurofins, Dundee, Scotland
T3 sequence (Q92630 1-601): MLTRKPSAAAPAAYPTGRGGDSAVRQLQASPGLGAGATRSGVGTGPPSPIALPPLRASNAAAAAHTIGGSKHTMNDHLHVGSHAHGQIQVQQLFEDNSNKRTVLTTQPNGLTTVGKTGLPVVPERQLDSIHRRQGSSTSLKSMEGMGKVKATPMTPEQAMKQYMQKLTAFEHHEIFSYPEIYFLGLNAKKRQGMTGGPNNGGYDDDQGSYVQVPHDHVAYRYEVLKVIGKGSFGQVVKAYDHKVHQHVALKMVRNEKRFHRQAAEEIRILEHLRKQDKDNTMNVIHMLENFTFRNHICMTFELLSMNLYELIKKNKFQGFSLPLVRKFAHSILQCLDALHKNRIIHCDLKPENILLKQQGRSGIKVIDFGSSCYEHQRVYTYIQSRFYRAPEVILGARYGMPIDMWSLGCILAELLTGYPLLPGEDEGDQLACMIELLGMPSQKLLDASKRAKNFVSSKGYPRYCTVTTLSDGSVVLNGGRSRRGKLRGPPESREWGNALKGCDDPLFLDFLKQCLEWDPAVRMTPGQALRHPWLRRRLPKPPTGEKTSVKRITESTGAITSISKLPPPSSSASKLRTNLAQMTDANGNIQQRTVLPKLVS
Experimental: (§1) Enzymatic biochemical activities were evaluated in radiometric protein kinase assays (Eurofins, Dundee, Scotland). Kinases are incubated with buffer, substrate and [γ-^33P]-ATP (specific activity approx. 500 cpm/pmol, concentration as required). The reaction is initiated by the addition of the MgATP mix. After incubation for 40 minutes at room temperature, the reaction is stopped by the addition of 3% phosphoric acid solution. 10 μL of the reaction is then spotted onto a P30 filtermat and washed three times for 5 minutes in 75 mM phosphoric acid and once in methanol prior to drying and scintillation counting. All compounds are prepared to 50x final assay concentration in 100% DMSO. Positive control wells contain all components of the reaction with 2% DMSO. Blank wells contain all components of the reaction, with a reference inhibitor replacing the compound of interest. Each kinase is assigned a standard assay concentration of ATP within 20 μM of its apparent Km. Compounds were screened at 1 μM in duplicate or tested at 10 concentrations at half log dilution starting from 10 μM in singlicate. Dose response curves were fitted with four parameter logistic curve to obtain IC50 values. […]
(§2) Staurosporine is used as reference for all tested enzymes except for SRPK3 (reference inhibitor: K-252a. Nocardiopsis sp), NEK2 (reference inhibitor: […]), and CK2, CK2α2, MAPK1, MAPK2 (reference inhibitor: PKR Inhibitor). See Table 1 below for additional details.

AKT3 = biological target: T4, AKT3 (Homo sapiens, UniProt Q9Y243); experiment: Radiometric protein kinase assay (Eurofins); type: biochemical; details: ATP 45 μM
T4 construct: purchased Eurofins, Dundee, Scotland
Experimental: as §1, §2

CLK4(h) = biological target: T5, CLK4(h) (Homo sapiens, UniProt Q9HAZ1); experiment: Radiometric protein kinase assay (Eurofins); type: biochemical; details: ATP 10 μM
T5 construct: purchased Eurofins, Dundee, Scotland
Experimental: as §1, §2

CLK1(h) = biological target: T6, CLK1(h) (Homo sapiens, UniProt P49759); experiment: Radiometric protein kinase assay (Eurofins); type: biochemical; details: ATP 10 μM
T6 construct: purchased Eurofins, Dundee, Scotland
Experimental: as §1, §2

GSK3α(h) = biological target: T7, GSK3α(h) (Homo sapiens, UniProt P49840); experiment: Radiometric protein kinase assay (Eurofins); type: biochemical; details: ATP 10 μM
T7 construct: purchased Eurofins, Dundee, Scotland
Experimental: as §1, §2

DYRK1B (h) = biological target: T8, DYRK1B (h) (Homo sapiens, UniProt Q9Y463); experiment: Radiometric protein kinase assay (Eurofins); type: biochemical; details: ATP 45 μM
T8 construct: purchased Eurofins, Dundee, Scotland
Experimental: as §1, §2

SRPK1(h) = biological target: T9, SRPK1(h) (Homo sapiens, UniProt Q96SB4); experiment: Radiometric protein kinase assay (Eurofins); type: biochemical; details: ATP 10 μM
T9 construct: purchased Eurofins, Dundee, Scotland
Experimental: as §1, §2

MAPK2 (h) = biological target: T10, MAPK2 (h) (Homo sapiens, UniProt P28482); experiment: Radiometric protein kinase assay (Eurofins); type: biochemical; details: ATP 155 μM
T10 construct: purchased Eurofins, Dundee, Scotland
Experimental: as §1, §2

CK2α2 (h) = biological target: T11, CK2α2 (h) (Homo sapiens, UniProt P19784); experiment: Radiometric protein kinase assay (Eurofins); type: biochemical; details: ATP 10 μM; read-out: CK2a2 IC50
T11 construct: purchased Eurofins, Dundee, Scotland
Experimental: as §1, §2

CLK3(h) = biological target: T12, CLK3(h) (Homo sapiens, UniProt P49761); experiment: Radiometric protein kinase assay (Eurofins); type: biochemical; details: ATP 90 μM
T12 construct: purchased Eurofins, Dundee, Scotland
Experimental: as §1, §2

DYRK1A(h) = biological target: T13, DYRK1A(h) (Homo sapiens, UniProt Q13627); experiment: Radiometric protein kinase assay (Eurofins); type: biochemical; details: ATP 45 μM
T13 construct: purchased Eurofins, Dundee, Scotland
Experimental: as §1, §2

SRPK2 (h) = biological target: T14, SRPK2 (h) (Homo sapiens, UniProt P78362); experiment: Radiometric protein kinase assay (Eurofins); type: biochemical; details: ATP 10 μM
T14 construct: purchased Eurofins, Dundee, Scotland
Experimental: as §1, §2

MAPK1 (h) = biological target: T15, MAPK1 (h) (Homo sapiens, UniProt P27361); experiment: Radiometric protein kinase assay (Eurofins); type: biochemical
T15 construct: purchased Eurofins, Dundee, Scotland
Experimental: as §1, §2

CK2 (h) = biological target: T16, CK2 (h) (Homo sapiens, UniProt P68400); experiment: Radiometric protein kinase assay (Eurofins); type: biochemical; details: ATP 10 μM
T16 construct: purchased Eurofins, Dundee, Scotland
Experimental: as §1, §2

SRPK3 (h) = biological target: T17, SRPK3 (h) (Homo sapiens, UniProt Q9UPE1); experiment: Radiometric protein kinase assay (Eurofins); type: biochemical; details: ATP 15 μM
T17 construct: purchased Eurofins, Dundee, Scotland
Experimental: as §1, §2

phosphorylation of SF3B1 = experiment: Western blot of nuclear extracts, phosphor-SF3B1; details: HCT116 cells, 4 h, 10 μM
CLK1 = tested on: CLK1; parameters: method as in PMID 29191878; details: chemoproteomic analysis; read-out: affinity for CLK1 (IC50); cited from earlier work
[3] = Homo sapiens, SK-MEL-2, 4 h, read-out: TESLR IC50 in inducing triple exon skipping
[4] = SK-MEL-2/Luc-MDM2 cells, luciferase activity

T11 sequence (P19784 whole entry): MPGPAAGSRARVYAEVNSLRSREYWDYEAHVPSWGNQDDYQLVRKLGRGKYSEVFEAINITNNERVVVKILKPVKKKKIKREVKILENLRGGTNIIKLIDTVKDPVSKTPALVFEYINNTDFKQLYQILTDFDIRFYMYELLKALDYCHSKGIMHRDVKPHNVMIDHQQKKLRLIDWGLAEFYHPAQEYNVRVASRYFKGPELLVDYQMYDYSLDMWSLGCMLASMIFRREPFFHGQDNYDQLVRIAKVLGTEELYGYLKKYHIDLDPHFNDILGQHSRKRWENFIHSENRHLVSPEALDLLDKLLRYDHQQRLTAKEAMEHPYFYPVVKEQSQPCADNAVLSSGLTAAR
T9 sequence (Q96SB4 whole entry): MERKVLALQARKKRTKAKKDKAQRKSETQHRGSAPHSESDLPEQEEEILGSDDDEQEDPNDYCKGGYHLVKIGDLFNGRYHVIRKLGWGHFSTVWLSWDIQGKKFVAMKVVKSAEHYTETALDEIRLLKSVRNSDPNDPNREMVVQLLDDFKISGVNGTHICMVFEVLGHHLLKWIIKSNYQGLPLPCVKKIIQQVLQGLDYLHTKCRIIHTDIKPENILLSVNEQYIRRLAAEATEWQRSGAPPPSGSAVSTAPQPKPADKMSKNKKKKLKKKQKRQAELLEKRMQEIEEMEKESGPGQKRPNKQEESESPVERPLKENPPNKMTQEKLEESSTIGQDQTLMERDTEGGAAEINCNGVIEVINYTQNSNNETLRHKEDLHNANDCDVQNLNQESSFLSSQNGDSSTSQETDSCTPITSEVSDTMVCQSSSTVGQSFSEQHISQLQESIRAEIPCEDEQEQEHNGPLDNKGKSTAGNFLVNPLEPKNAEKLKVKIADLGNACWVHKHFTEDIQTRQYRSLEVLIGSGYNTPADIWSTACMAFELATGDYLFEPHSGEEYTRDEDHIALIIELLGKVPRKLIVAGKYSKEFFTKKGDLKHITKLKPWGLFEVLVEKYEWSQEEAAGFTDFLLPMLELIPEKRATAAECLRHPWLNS
T7 sequence (P49840 whole entry): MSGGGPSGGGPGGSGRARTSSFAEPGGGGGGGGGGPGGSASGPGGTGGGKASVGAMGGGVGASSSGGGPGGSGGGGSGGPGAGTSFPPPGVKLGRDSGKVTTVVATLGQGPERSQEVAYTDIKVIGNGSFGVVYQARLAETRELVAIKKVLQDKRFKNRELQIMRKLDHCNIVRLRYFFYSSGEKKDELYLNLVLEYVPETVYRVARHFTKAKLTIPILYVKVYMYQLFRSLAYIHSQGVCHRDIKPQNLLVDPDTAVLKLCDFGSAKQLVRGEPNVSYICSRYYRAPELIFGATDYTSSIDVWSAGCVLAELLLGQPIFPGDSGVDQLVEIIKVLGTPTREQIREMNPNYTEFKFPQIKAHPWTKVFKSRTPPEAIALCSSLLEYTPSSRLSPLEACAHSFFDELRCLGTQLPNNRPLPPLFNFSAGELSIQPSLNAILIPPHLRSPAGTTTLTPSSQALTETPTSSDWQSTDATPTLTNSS
T14 sequence (P78362 whole entry): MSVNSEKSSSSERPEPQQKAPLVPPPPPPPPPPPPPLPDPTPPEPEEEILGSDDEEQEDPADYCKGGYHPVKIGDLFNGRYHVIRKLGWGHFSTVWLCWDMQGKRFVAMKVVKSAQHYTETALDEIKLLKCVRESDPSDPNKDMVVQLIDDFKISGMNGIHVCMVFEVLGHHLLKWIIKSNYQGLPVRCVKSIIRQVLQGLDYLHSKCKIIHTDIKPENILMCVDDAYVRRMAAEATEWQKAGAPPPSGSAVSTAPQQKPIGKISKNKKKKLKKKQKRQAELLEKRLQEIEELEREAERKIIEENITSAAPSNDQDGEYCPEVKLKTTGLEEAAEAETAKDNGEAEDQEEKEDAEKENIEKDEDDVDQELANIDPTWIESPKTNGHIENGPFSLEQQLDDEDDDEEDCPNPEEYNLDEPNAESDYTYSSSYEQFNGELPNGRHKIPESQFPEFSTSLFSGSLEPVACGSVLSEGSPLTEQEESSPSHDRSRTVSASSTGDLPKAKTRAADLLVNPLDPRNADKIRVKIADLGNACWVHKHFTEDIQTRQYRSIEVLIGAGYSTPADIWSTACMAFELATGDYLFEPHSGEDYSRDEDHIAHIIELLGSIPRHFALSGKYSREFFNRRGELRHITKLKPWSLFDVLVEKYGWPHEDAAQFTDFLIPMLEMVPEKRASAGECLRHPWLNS
T15 sequence (P27361 whole entry): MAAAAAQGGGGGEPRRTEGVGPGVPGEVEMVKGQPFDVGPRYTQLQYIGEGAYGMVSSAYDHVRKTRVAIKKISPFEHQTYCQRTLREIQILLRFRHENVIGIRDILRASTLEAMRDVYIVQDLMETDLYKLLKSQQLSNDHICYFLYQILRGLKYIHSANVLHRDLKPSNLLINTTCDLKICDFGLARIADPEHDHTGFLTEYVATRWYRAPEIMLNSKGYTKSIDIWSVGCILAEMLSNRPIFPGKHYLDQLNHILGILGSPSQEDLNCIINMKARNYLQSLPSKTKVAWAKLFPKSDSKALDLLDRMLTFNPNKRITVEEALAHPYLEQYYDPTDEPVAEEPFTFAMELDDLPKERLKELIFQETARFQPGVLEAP
T8 sequence (Q9Y463 whole entry): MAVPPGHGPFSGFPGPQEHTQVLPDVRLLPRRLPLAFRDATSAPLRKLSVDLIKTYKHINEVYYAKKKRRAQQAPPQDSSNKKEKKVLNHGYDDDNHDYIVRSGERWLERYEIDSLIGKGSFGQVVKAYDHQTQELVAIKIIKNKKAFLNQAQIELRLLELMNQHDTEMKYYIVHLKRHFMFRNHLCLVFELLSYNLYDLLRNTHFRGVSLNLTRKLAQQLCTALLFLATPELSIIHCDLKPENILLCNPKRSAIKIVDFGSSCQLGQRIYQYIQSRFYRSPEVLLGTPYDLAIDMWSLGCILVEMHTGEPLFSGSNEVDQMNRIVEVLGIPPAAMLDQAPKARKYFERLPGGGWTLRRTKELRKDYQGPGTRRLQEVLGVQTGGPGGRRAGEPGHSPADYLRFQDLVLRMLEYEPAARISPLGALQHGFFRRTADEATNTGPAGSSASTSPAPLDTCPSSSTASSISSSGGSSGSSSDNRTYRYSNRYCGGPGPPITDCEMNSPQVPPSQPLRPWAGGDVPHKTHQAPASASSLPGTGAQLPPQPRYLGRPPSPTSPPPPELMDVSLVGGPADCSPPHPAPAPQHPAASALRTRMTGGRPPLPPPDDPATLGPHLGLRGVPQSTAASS
T6 sequence (P49759 whole entry): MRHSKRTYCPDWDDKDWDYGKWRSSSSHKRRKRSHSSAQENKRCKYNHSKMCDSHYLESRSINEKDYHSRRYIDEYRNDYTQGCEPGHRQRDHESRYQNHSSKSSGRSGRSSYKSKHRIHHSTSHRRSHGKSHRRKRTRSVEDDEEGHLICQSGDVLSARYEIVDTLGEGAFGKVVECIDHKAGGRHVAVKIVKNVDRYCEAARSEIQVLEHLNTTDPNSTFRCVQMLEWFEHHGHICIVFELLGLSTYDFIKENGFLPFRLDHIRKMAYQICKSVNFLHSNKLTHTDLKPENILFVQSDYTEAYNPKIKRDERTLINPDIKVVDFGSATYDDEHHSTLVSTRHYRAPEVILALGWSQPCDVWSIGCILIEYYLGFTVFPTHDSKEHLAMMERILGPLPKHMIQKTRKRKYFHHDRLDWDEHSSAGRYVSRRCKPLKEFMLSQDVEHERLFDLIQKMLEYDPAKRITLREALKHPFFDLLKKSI
T5 sequence (Q9HAZ1 whole entry): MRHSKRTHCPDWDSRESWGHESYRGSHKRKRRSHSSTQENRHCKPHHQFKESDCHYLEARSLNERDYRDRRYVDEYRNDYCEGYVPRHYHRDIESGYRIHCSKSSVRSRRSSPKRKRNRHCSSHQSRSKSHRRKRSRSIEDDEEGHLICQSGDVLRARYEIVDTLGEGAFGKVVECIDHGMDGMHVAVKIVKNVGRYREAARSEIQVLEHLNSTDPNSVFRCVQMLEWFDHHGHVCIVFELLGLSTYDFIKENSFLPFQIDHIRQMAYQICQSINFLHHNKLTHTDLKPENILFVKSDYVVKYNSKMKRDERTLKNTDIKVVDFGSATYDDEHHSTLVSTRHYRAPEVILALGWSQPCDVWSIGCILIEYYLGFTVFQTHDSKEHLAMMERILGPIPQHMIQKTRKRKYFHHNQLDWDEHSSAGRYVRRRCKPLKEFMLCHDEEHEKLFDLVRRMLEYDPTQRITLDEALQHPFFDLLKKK
T17 sequence (Q9UPE1 whole entry): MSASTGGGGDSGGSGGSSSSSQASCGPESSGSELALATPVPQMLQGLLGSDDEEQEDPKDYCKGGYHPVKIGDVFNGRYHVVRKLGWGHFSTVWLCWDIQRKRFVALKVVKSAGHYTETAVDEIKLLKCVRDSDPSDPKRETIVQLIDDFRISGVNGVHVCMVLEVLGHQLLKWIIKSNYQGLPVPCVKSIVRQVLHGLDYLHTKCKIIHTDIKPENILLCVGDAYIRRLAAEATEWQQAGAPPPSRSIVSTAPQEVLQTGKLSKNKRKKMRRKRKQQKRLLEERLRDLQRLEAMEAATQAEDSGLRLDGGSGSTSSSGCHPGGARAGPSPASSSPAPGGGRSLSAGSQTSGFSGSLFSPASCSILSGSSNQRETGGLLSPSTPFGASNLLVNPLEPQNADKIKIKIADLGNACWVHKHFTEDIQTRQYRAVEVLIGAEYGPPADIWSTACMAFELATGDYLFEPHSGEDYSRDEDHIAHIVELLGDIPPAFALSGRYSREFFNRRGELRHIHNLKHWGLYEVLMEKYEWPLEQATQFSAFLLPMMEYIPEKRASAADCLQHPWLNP

Compound: CN(c1ncccc1CNc1nc(Nc2ccc3c(c2)CC(=O)N3)ncc1C(F)(F)F)S(C)(=O)=O [Compound 3, PF-562271]
- IC50 (CDK2/cyclinA (h)): 203 nM
- MDM2 alternative splicing (AS) pattern by RT-PCR [1]: dominant MDM2 transcript (the same size as the DMSO control) and an AS isoform of 785 bp
- Antagonism of the compound's TESLR activity by sudemycinol C (SF3B1): did not antagonize
- EC50 ([2]; SK-MEL-2/Luc-MDM2 cells, 4 hour treatment, luciferase activity): 5560 nM
- DYRK2 IC50 (DYRK2 (h)): NA (NA: Not Active (less than 50% inhibition at 1 micromolar))
- AKT3 IC50 (AKT3): NA (NA: Not Active (less than 50% inhibition at 1 micromolar))
- IC50 (CLK4(h)): 155 nM
- IC50 (CLK1(h)): 141 nM
- IC50 (GSK3α(h)): 221 nM
- DYRK1B IC50 (DYRK1B (h)): NA (NA: Not Active (less than 50% inhibition at 1 micromolar))
- SRPK1 IC50 (SRPK1(h)): NA (NA: Not Active (less than 50% inhibition at 1 micromolar))
- IC50 (MAPK2 (h)): 863 nM
- IC50 (CK2α2 (h)): 374 nM
- CLK3 IC50 (CLK3(h)): NA (NA: Not Active (less than 50% inhibition at 1 micromolar))
- DYRK1A IC50 (DYRK1A(h)): NA (NA: Not Active (less than 50% inhibition at 1 micromolar))
- SRPK2 IC50 (SRPK2 (h)): NA (NA: Not Active (less than 50% inhibition at 1 micromolar))
- MAPK1 IC50 (MAPK1 (h)): NA (NA: Not Active (less than 50% inhibition at 1 micromolar))
- CK2 IC50 (CK2 (h)): NA (NA: Not Active (less than 50% inhibition at 1 micromolar))
- SRPK3 IC50 (SRPK3 (h)): NA (NA: Not Active (less than 50% inhibition at 1 micromolar))
- Effect on phosphorylation of SF3B1 (immunoblot) (phosphorylation of SF3B1): inhibited the phosphorylation of SF3B1 protein in HCT116 cells

Compound: CC(C)(C)c1cnc(CSc2cnc(NC(=O)C3CCNCC3)s2)o1 [SNS-032]
- IC50 [2, 3]: > 10000 nM

Compound: CN1CC[C@H](c2c(O)cc(O)c3c(=O)cc(-c4ccccc4Cl)oc23)[C@H](O)C1 [flavopiridol]
- IC50 [2, 3]: > 10000 nM

Second part, led by results:

- EC50 ([2]; Homo sapiens, SK-MEL-2, 4 h): 19900 nM
- IC50 [2, 3]: 10000 to 300000 nM
Compound: O=C(O)c1ccc2c(c1)nc(Nc1cccc(Cl)c1)c1ccncc12 [silmitasertib]
- TESLR Maximum fold change [2, 4]: 31.5

- IC50 ([2]; Homo sapiens, SK-MEL-2, 4 h, read-out: TESLR IC50 (as printed in Fig 5)): ~291000 nM
- IC50 [2, 3]: 10000 to 300000 nM
Compound: CC(=O)c1c(C)c2cnc(Nc3ccc(N4CCNCC4)cn3)nc2n(C2CCCC2)c1=O [palbociclib]
- TESLR Maximum fold change [2, 4]: 2.92
- IC50 (CLK1): 276 nM
